US6737425B1, “N,N-substituted cyclic amine derivatives” (Eisai Co., Ltd., priority 1998, dated 2004)
Several values for one entry are separate records, joined by “and”; a condition that tells them apart may be missing. Equal entries are not always repeated.

Experiments:
[1] = test system: voltage-dependent calcium channels (cerebral cortex synaptosome); experiment: Measurement of voltage-dependent calcium channel activity by the use of a fluorescent pigment (fura 2); assay type: cell-based; settings: rat cerebral cortex synaptosome, fura 2, KCl stimulation, compound incubated 10 minutes
Method in brief: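 Synaptosomes were prepared from rat cerebral cortex by sucrose homogenisation and 0.8 M sucrose gradient centrifugation. They were loaded with fura-2/AM by mixing with an equal volume of 4 μM loading solution for 40 min at room temperature. Verapamil hydrochloride served as the reference compound.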

[2] = test system: rat model with occlusion in the middle cerebral artery; experiment: Effect (I) of reducing infarct volume in a rat model with occlusion in the middle cerebral artery (2 hours occlusion); assay type: in vivo; settings: for Infarct volume in the cerebral cortex, Mean: from 30 minutes after occlusion, 6 hours, 2 hours occlusion, 24 hours after occlusion; for reduction of infarct volume in the cerebral cortex: vs control group
Protocol: Effect (I) of Reducing Infarct Volume in a Rat Model with Occlusion in the Middle Cerebral Artery
The compound in Example 1 was selected as the typical example of the compound of the present invention, and this sample was dissolved in 5.28% mannitol to be adjusted to a dosage of 5 or 10 mg/kg/h just before use. The concentration of the sample was calculated on the basis of the average weight of animals, as shown in the following example. The average weight was determined by measuring the weights of all animals to be used in the experiment.
For occlusion in the middle cerebral artery, an embolus prepared from nylon yarn of 4-0 monofilament (Ethicon, Inc., Somerville, N.J., USA) was used. The end of the nylon embolus was previously rounded with flame, and it was cut into fragments of 25 mm in length, and each fragment was marked at a position 17 mm apart from the end with an oil-based felt pen.
Implantation of a catheter for intravenous administration (Atom venous catheter 3Fr, Atom Medical Co., Ltd., Tokyo) was conducted under anesthesia with 70% laughing gas-2% halothane. The catheter filled with physiological saline was inserted through the thigh vein in the left leg.
Occlusion in the middle cerebral artery was conducted in accordance with the method of Longa et al. (12). Just after the catheter was implanted, the operation was conducted under anesthesia with 70% laughing gas-2% halothane. A rat was allowed to lie on the back and the cervical region was cut open under a stereoscopic microscope for operation, and the part where the common carotid artery at the right side branched into the external carotid artery and the internal carotid artery was confirmed. The external carotid artery was cut at the peripheral side, and the nylon embolus was inserted through the end of the cut external carotid artery into the internal carotid artery. The embolus was inserted until the position 17 mm apart from the end of the embolus reached the point where the external carotid artery was joined to the internal carotid artery, and the embolus was fixed. To initiate blood stream again, the nylon embolus was removed 2 hours after the middle cerebral artery was occluded. […]
Twenty four hours after the middle cerebral artery was occluded, the head was cut off from the rat and the brain was taken out. […] The sample was left at room temperature for at least 1 hour in the TTC solution and then measured for the infarct area. […]

mice in a formalin test = experiment: Antalgic effect (I) on mice in a formalin test; assay type: in vivo; settings: for average left hind leg-licking time, Mean: formalin 5 minutes later, measured for 5 minutes
Protocol: Antalgic Effect (I) on Mice in a Formalin Test
The antalgic action of the typical example of the compound of the present invention (Example 1) when intravenously administered was examined in the formalin test using mice (3).
ddy Mice (male, 4-week-old) purchased from Nippon SLC Ltd. were used in the experiment.
20.4 mg of the test compound was weighed, and 10.2 ml of 5.28% mannitol was added thereto to prepare 2 mg/ml (20 mg/kg) solution. Then, 3.8 ml of 5.28% mannitol was added to 3.8 ml of the 2 mg/ml solution to prepare 1 mg/ml (10 mg/kg) solution. Finally, 2.5 ml of 5.28% mannitol was added to 2.5 ml of the 1 mg/ml solution to prepare 0.5 mg/ml (5 mg/kg) solution. This test compound was weighed and prepared on the day when the experiment was conducted.
30 μl of commercial 35.0 to 38.0% formaldehyde was added to 970 μl physiological saline. The resulting solution was used as 3% formalin. Because the indicated purity of this commercial formaldehyde is 35.0 to 38.0%, the 3% formalin presently prepared and used is accurately 2.84 to 3.08% formalin.
The treatment group in this test consisted of 4 groups in total, that is, a control group, a 5 mg/kg test compound administration group, a 10 mg/kg administration group, and a 20 mg/kg administration group, and each group consisted of 5 animals.
The control group was given 0.1 ml of 5.28% mannitol per 10 g of the body weight. The test compound was administered at each concentration (0.5 mg/ml, 1 mg/ml, and 2 mg/ml) in an volume of 0.1 ml per 10 g of the body weight into the 5 mg/kg group, 10 mg/kg group and 20 mg/kg group, respectively.
5.28% mannitol was administered via the tail vein into each group given the compound of the present invention or into the control group, and the animals were placed in a transparent plastic observation cage. 5 minutes later, 20 μl of 3% formalin was subcutaneously administered into the bottom of the left hind leg of each mouse. The duration of the behavior of mouse's licking the left hind leg after administration of formalin was measured for 5 minutes and used as an indication of pain. The duration was expressed in second.
In the significant test, parametric one-way layout analysis of variance was conducted and then Dunnet-type multiple comparison was made (*: 0.01<p<0.05, **: p<0.01, vs. the control group). For the test, a statistical analysis assistant system with SAS 6.12 (SAS Institute Japan Ltd., Tokyo) integrated in it was used.

Structure (SMILES): CC(C)C(C#N)(CCCN1CCN(CCOc2ccc(F)cc2)CC1)c1ccccc1 (stereo not drawn) [Example 1, 1-[(4-Cyano-5-methyl-4-phenyl)hexyl]-4-[2-(4-fluorophenoxy)ethyl]piperazine]
- IC50 [1]: 5.9 µM
- Infarct volume in the cerebral cortex, Mean ([2]; 5 mg/kg/h i.v. (table: 5 mg/kg)): 162.2±16.3 mm^3 and 162.17 mm^3
- reduction of infarct volume in the cerebral cortex ([2]; 5 mg/kg/h i.v.): 28%
- Infarct volume in the cerebral cortex, Mean ([2]; 10 mg/kg/h i.v. (table: 10 mg/kg)): 135.5±26.2 mm^3 and 135.50 mm^3
- reduction of infarct volume in the cerebral cortex ([2]; 10 mg/kg/h i.v.): 40%
- average left hind leg-licking time, Mean (mice in a formalin test; 5 mg/kg i.v. (tail vein)): 49.4 s
- licking time compared to the control group (mice in a formalin test; 5 mg/kg, 10 mg/kg and 20 mg/kg i.v.): statistically significant reduction in licking time
- average left hind leg-licking time, Mean (mice in a formalin test; 10 mg/kg i.v. (tail vein)): 23.6 s
- average left hind leg-licking time, Mean (mice in a formalin test; 20 mg/kg i.v. (tail vein)): 2.2 s
